These molecules were tested on benzodiazepine receptors (assay: in vivo displacement of 3H-flunitrazepam from brain benzodiazepine receptors in mice). Settings: i.p. test substance 15 min before 3H-flunitrazepam i.v., dose reducing specific forebrain binding to 50% of control.
Parameters: species or system mice (female, NMR)
Text: The pharmaceutical properties of the compounds of the invention can be illustrated by determining their capability for displacing radioactive labelled flunitrazepam from benzodiazepine receptors.
The displacement activity of the compounds of the invention may be found by determining the ED50 value. The ED50 value represents the dose (mg/kg) of a test substance which causes the specific binding of flunitrazepam to benzodiazepine receptors in a living brain to be reduced to 50% of the control value.
Such an in vivo test is carried out as follows:
Principle. Twenty minutes after a dose of ^3 H-flunitrazepam (^3 H-FNM) (200μCi/kg, i.v.) the amount of specific ^3 H-FNM binding to brain benzodiazepine receptors has reached its maximal value.
Test procedure. Suspensions of test substances (2 mg/ml) are prepared in 5% Duphasol-X (TM Duphar, castor oil-ethylene oxide derivative for emulsifying and solubilizing oil and other water-insoluble substances) by sonification for 10 min using a Branson B15 microtip ultrasonifier (setting 7). Groups of three mice (female, NMR, 18-22 grams) are injected with the test substance at 100 mg/kg intraperitoneally. Fifteen minutes after test substance administration the mice are challenged with 4 μCi intravenously of ^3 H-FNM (70-90 Ci/mole) in 200 μl physiological saline. Twenty minutes after ^3 H-FNM administration mice are sacrificed by decapitation, the forebrains rapidly excised (within 30 sec) and homogenized in 12 ml of icecold 25 mM KH2 PO4, pH 7.1, using an Ultra-Turrax homogenizer fitted with an N 10 shaft. Two aliquots of 1 ml are immediately filtered through Whatman GF/C glassfibre filters and washed with 2×5 ml of the above mentioned buffer. The amounts of radioactivity on the filters are determined by conventional scintillation counting. One group of untreated mice serves as control. One to three mice are injected with 25 μg/kg clonazepam i.p. 30 minutes before ^3 H-FNM to determine the amount of non-specific ^3 H-FNM binding, which should be between 8-15% of total binding. When doses of 100 mg/kg inhibit more than 50% of specific ^3 H-flunitrazepam binding; test substances are administered in doses, which are factors of 3.16 times lower than 100 mg/kg. The ED50 for a test substance is defined as that dose which inhibits 50% of specific ^3 H-FNM binding. Specific binding is the amount of binding in controls minus the amount binding in clonazepam-treated mice.
Results. The ED50 value is determined from dose response curves. If only one dose of test substance is administered the ED50 value is calculated as follows, provided that the inhibition of specific binding is within the range of 25-75%: [formula] where Co is specific binding in controls and Cx is specific binding in mice treated with test substance.

| Compound | in vivo bind. ED50 |
| --- | --- |
| Cn1c(=O)c2c(-c3nc(C4CC4)no3)ncn2c2cccnc21 | 0.9 mg/kg |
| Cn1c(=O)c2c(Oc3ccc(F)cc3)cccc2n2cnc(-c3noc(C4CC4)n3)c12 | 2.9 mg/kg |
| CCn1c(=O)c2c(-c3nc(C4CC4)no3)ncn2c2ccccc21 | 1.4 mg/kg |
| CCn1c(=O)c2c(-c3noc(C4CC4)n3)ncn2c2cccnc21 | 0.7 mg/kg |
| Cc1nc(-c2ncn3c4cccc(C#C[Si](C)(C)C)c4c(=O)n(C)c23)no1 [4,5-Dihydro-4-methyl-3-(5-methyl-1,2,4-oxadiazol-3-yl)-5-oxo-6-trimethylsilylethynyl-imidazo(1,5-a)quinazoline] | 3.7 mg/kg |

— patent US4902686A, “Tricyclic heterocyclic compounds and their use in treating benzodiazepin receptor-related ailments” (A/S Ferrosan, priority 1987, dated 1990)
